Results taken from patent publication US20250074913A1, “PYRAZOLE DERIVATIVES AS STING AGONISTS” (Hoffmann-La Roche Inc., priority 2022, published 2025).
Like-named read-outs stand apart in the source and are kept apart here.

Experiments:
human PBMC = experiment: hPBMC cytokine release assay (Luminex, IFN-β); format: cell-based; conditions: read-out: Agonist_hPBMC_IFN-β_EC50
Procedure: This is the cytokines concentration detection with Luminex assay for human PBMC supernatant. Human peripheral blood mononuclear cells (PBMC) are treated by compounds with appropriate time. Multiple cytokines are released in the supernatant in response to the compound stimulation. Luminex assay can measure the cytokines concentration in supernatant and the compounds activity on human PBMC can be evaluated.
Frozen PBMC was thawed and cultured in PRMI1640 (GIBCO 11875-093) whole medium with […] Heat inactivated-FBS (HI—FBS), 1% NEAA, […] in CO2 incubator overnight. Cells were centrifuged at 400×g for 5 minutes at 4° C. and the pellet was re-suspended with complete RPMI1640 medium to concentration of 1×10^6 cells/ml in cell culture flask T75 (Thermo Fisher Scientific). Compounds were serially diluted with DMSO and distributed to 96-well flat bottom cell plate (Corning 3599) with Echo555. 90 μL/well PBMC cells were seeded into the plates with Multidrop (Thermo Fisher Scientific). After 24 hours of incubation in CO2 incubator, cells were centrifuged at 400×g for 5 minutes at room temperature, 80 μL supernatant each well was collected for cytokines release test with luminex assay of Human custom ProcartaPlex 5-plex kit (Thermo Fisher Scientific PPX-05). 10 μL supernatant or standards were added to a mixture of color-coded beads, 5 μL Biotinylated detection antibodies specific to the analytes of interest were added and formed an antibody-antigen sandwich. 10 μL Phycoerythrin (PE)-conjugated streptavidin is added to the plate and then read signal of each well on the Luminex 200™. The raw data was analyzed by Millipore Analyst Software and cytokine concentrations were generated accordingly. The EC50 of corresponding cytokine such as interferon-β (IFN-β) was calculated by the 4-parameter sigmoidal concentration response model fitting.

[1] = tested on: interferon regulatory factor (IRF) pathway in THP1-Dual™ cells; experiment: THP1-Dual reporter gene assay (Agonist_THP1_EC50); format: cell-based; conditions: Homo sapiens, 20-24 hrs compound treatment, Lucia luciferase (IRF) readout
Excerpt: This is the cellular reporter assay to evaluate compounds' agonism to interferon regulatory factor (IRF) pathway in THP1-Dual™ cells (InvivoGen, cat number thpd-nfis). THP1-Dual™ cells were derived from the human THP-1 monocyte cell line by stable integration lucia luciferase gene, a new secreted luciferase reporter gene, under the control of an ISG54 (interferon-stimulated gene) minimal promoter in conjunction with five interferon (IFN)-stimulated response elements. As a result, THP1-Dual™ cells allow the study of the IRF pathway, by assessing the activity of Lucia luciferase. Lucia luciferase protein is readily measurable in the cell culture supernatant when using QUANTI-Luc™ (InvivoGen, cat: rep-qlcg-500).
After 20-24 hrs compound treatment in THP1-Dual cells, the compounds' agonism to IRF pathway and cell toxicity were tested by measuring luminescence and OD 450 on an Envision plate reader.
On the day of experiment, 30 μL of test medium (RPMI 1640, 2 mM L-glutamine, 25 mM HEPES, […] heat-inactivated fetal bovine serum) was dispensed in a white 384-well plate (Grenier, cat: 781098) containing the serially diluted compounds (final 1% DMSO) transferred by the Echo550 machine. Then 30 μL of cell suspension (˜33,000 cells, 1.1×10^6 cells/mL) per well was added immediately by thermo multidrop combi dispenser for incubation 20-24 h at 37° C., […]. At the end of the incubation, 10 μL of cellular supernatant was transferred to proxiplate 384-plus plate for IRF detection, and then 10 μL of QUANTI-Luc™ Gold solution was added to the plate that proceeded with the measurement immediately. To detect cell viability, 30 μL of the CCK-8 working solution (Dojindo Molecular Technologies, cat: CK04-20) was added to the cell plate, which was Incubated for 2 hrs in the incubator to measure the absorbance at 450 nm using Envision.

[2] = 24 hours incubation, IFN-β in supernatant

SMILES	EC50 (human PBMC; prior art compounds (Table 4), IFN-β) [nM]	EC50 [1] [nM]	EC50 (human PBMC; [2]) [nM]
CCn1nc(C)c(O)c1-c1nc(-c2nc(C(N)=O)cc3c2cnn3C)co1 [AE01, reference compound]	40		
Cc1nn(CC=C(F)F)c(-c2n[nH]c(-c3nc(C(N)=O)cc4c3cnn4C)n2)c1O [Example 34, 4-[3-[2-(3,3-difluoroallyl)-4-hydroxy-5-methyl-pyrazol-3-yl]-1H-1,2,4-triazol-5-yl]-1-methyl-pyrazolo[4,3-c]pyridine-6-carboxamide]		12	11
CC#CCCn1nc(C)c(O)c1-c1n[nH]c(-c2nc(C(N)=O)cc3c2cnn3C)n1 [Example 45, 4-[3-(4-hydroxy-5-methyl-2-pent-3-ynyl-pyrazol-3-yl)-1H-1,2,4-triazol-5-yl]-1-methyl-pyrazolo[4,3-c]pyridine-6-carboxamide]		9	9
Cc1cc2c(C(N)=O)nn(-c3nc(-c4c(O)c(C)nn4CCc4ccc(F)cc4)n[nH]3)c2cn1 [Example 52, 1-[3-[2-[2-(4-fluorophenyl)ethyl]-4-hydroxy-5-methyl-pyrazol-3-yl]-1H-1,2,4-triazol-5-yl]-5-methyl-pyrazolo[3,4-c]pyridine-3-carboxamide]		13	18
Cc1cn2c(C(N)=O)nc(-c3nc(-c4c(O)c(C)nn4CCc4ccccc4)n[nH]3)c2cn1 [Example 53, 1-[3-[4-hydroxy-5-methyl-2-(2-phenylethyl)pyrazol-3-yl]-1H-1,2,4-triazol-5-yl]-6-methyl-imidazo[1,5-a]pyrazine-3-carboxamide]		12	26
Cc1cc2c(C(N)=O)nn(-c3nc(-c4c(O)c(C)nn4CCc4cccc(F)c4)n[nH]3)c2cn1 [Example 55, 1-(3-(1-(3-fluorophenethyl)-4-hydroxy-3-methyl-1H-pyrazol-5-yl)-1H-1,2,4-triazol-5-yl)-5-methyl-1H-pyrazolo[3,4-c]pyridine-3-carboxamide]		13	32
CCCn1nc(C)c(O)c1-c1nc(-n2nc(C(N)=O)c3cc(C)ncc32)co1 [Example 58, 1-(2-(4-hydroxy-3-methyl-1-propyl-1H-pyrazol-5-yl)oxazol-4-yl)-5-methyl-1H-pyrazolo[3,4-c]pyridine-3-carboxamide]		6	17
CCCCn1nc(C)c(O)c1-c1nc(-n2nc(C(N)=O)c3cc(C)ncc32)co1 [Example 59, 1-(2-(1-butyl-4-hydroxy-3-methyl-1H-pyrazol-5-yl)oxazol-4-yl)-5-methyl-1H-pyrazolo[3,4-c]pyridine-3-carboxamide]		10	7
COCc1ccc(CCn2nc(C)c(O)c2-c2n[nH]c(-n3nc(C(N)=O)c4cc(C)ncc43)n2)cc1 [Example 64, 1-[3-[4-hydroxy-2-[2-[4-(methoxymethyl)phenyl]ethyl]-5-methyl-pyrazol-3-yl]-11H-1,2,4-triazol-5-yl]-5-methyl-pyrazolo[3,4-c]pyridine-3-carboxamide]		13	35
Cc1cc2c(C(N)=O)nn(-c3coc(-c4c(O)c(C)nn4CCC(F)F)n3)c2cn1 [Example 67, 1-(2-(1-(3,3-difluoropropyl)-4-hydroxy-3-methyl-1H-pyrazol-5-yl)oxazol-4-yl)-5-methyl-1H-pyrazolo[3,4-c]pyridine-3-carboxamide]		18	24
COc1ccc(CCn2nc(C)c(O)c2-c2n[nH]c(-c3nc(C(N)=O)n4cc(C)ncc34)n2)cc1 [Example 70, 1-[3-[4-hydroxy-2-[2-(4-methoxyphenyl)ethyl]-5-methyl-pyrazol-3-yl]-1H-1,2,4-triazol-5-yl]-6-methyl-imidazo[1,5-a]pyrazine-3-carboxamide]		6	10
CCCCn1nc(C)c(O)c1-c1n[nH]c(-c2c(F)c(C(N)=O)n3cc(C)ncc23)n1 [Example 76, 8-[3-(2-butyl-4-hydroxy-5-methyl-pyrazol-3-yl)-1H-1,2,4-triazol-5-yl]-7-fluoro-3-methyl-pyrrolo[1,2-a]pyrazine-6-carboxamide]		15	14
CCCCn1nc(C)c(O)c1-c1n[nH]c(-c2nc(C(N)=O)n3cc(C)ncc23)n1 [Example 77, 1-[3-(2-butyl-4-hydroxy-5-methyl-pyrazol-3-yl)-1H-1,2,4-triazol-5-yl]-6-methyl-imidazo[1,5-a]pyrazine-3-carboxamide]		17	20
CCCn1nc(C)c(O)c1-c1n[nH]c(-c2nc(C(N)=O)n3cc(C)ncc23)n1 [Example 80, 1-[3-(4-hydroxy-5-methyl-2-propyl-pyrazol-3-yl)-1H-1,2,4-triazol-5-yl]-6-methyl-imidazo[1,5-a]pyrazine-3-carboxamide]		20	42
Cc1nn(CCc2ccccc2)c(-c2n[nH]c(-c3nc(C(N)=O)cc4c3cnn4C)n2)c1O [Example 82, 4-(5-(4-hydroxy-3-methyl-1-phenethyl-1H-pyrazol-5-yl)-2H-1,2,4-triazol-3-yl)-1-methyl-1H-pyrazolo[4,3-c]pyridine-6-carboxamide]		8	29
CCCn1nc(C)c(O)c1-c1nc(-n2nc(C(N)=O)c3cc(C)ncc32)c(CO)o1 [Example 83, 1-[5-(hydroxymethyl)-2-(4-hydroxy-5-methyl-2-propyl-pyrazol-3-yl)oxazol-4-yl]-5-methyl-pyrazolo[3,4-c]pyridine-3-carboxamide]		22	23
CCCn1nc(C)c(O)c1-c1nc(-n2nc(C(N)=O)c3cc(C)ncc32)n(C)n1 [Example 84, 1-[5-(4-hydroxy-5-methyl-2-propyl-pyrazol-3-yl)-2-methyl-1,2,4-triazol-3-yl]-5-methyl-pyrazolo[3,4-c]pyridine-3-carboxamide]		34	18
CCCCn1nc(C)c(O)c1-c1nc(-c2nc(C(N)=O)n3cc(C)ncc23)co1 [Example 86, 1-[2-(2-butyl-4-hydroxy-5-methyl-pyrazol-3-yl)oxazol-4-yl]-6-methyl-imidazo[1,5-a]pyrazine-3-carboxamide]		16	30
COCc1ccc(CCn2nc(C)c(O)c2-c2nc(-n3nc(C(N)=O)c4cc(C)ncc43)co2)cc1 [Example 89, 1-[2-[4-hydroxy-2-[2-[4-(methoxymethyl)phenyl]ethyl]-5-methyl-pyrazol-3-yl]oxazol-4-yl]-5-methyl-pyrazolo[3,4-c]pyridine-3-carboxamide]		55	
Cc1cn2c(C(N)=O)nc(-c3nc(-c4c(O)c(C)nn4CCc4nccs4)n[nH]3)c2cn1 [Example 90, 1-[3-[4-hydroxy-5-methyl-2-(2-thiazol-2-ylethyl)pyrazol-3-yl]-1H-1,2,4-triazol-5-yl]-6-methyl-imidazo[1,5-a]pyrazine-3-carboxamide]		30	
CCCn1nc(C)c(O)c1-c1n[nH]c(-c2cc(C(N)=O)n3cc(C)ncc23)n1 [Example 91, 8-[3-(4-hydroxy-5-methyl-2-propyl-pyrazol-3-yl)-1H-1,2,4-triazol-5-yl]-3-methyl-pyrrolo[1,2-a]pyrazine-6-carboxamide]		16	38
CCCn1nc(C)c(O)c1-c1nc(-c2nc(C(N)=O)n3cc(C)ncc23)n(C)n1 [Example 92, 1-[5-(4-hydroxy-5-methyl-2-propyl-pyrazol-3-yl)-2-methyl-1,2,4-triazol-3-yl]-6-methyl-imidazo[1,5-a]pyrazine-3-carboxamide]		222	
CCCn1nc(C)c(O)c1-c1nc(-c2c(F)c(C(N)=O)n3cc(C)ncc23)co1 [Example 93, 7-fluoro-8-[2-(4-hydroxy-5-methyl-2-propyl-pyrazol-3-yl)oxazol-4-yl]-3-methyl-pyrrolo[1,2-a]pyrazine-6-carboxamide]		6	9
